# Values of other authors as cited in patent US20260207540A1 (priority 2020, published 2026).
# How the values were obtained:
# [1] = tested on: SRCR (scavenger receptor cysteine-rich) domain; conditions: proteins with calcium binding sites similar to host protease TMPRSS2
# [2] = inhalation challenge 0.25 to 10.0 mg/mL
# [3] = 1 microgram/kg IV, canines
Molecule,calcium-dependent binding [1],bronchoconstriction [2],"Rubella virus infection (Rubella virus; in the ""test tube"")","Rubella fusion (Rubella virus; in vitro, addition of the calcium chelator)",EDTA-induced bronchoconstriction [3]
"O=C(O)CN(CCN(CC(=O)O)CC(=O)O)CC(=O)O [EDTA, ethylenediamine tetraacetic acid]",disrupted,concentration-dependent bronchoconstriction,prevented,completely abrogated,–
albuterol sulfate,–,–,–,–,significantly attenuated
